Results on 20 compounds are retold here after US10106508B2, “Quinazoline heterocyclic compound as EGFR kinase inhibitor and preparation and application thereof” (BEIJING SCITECH-MQ PHARMACEUTICALS LIMITED, priority 2015, dated 2018).

The subject of one series is A549 cells. The series can be described thus: Anti-proliferative activity, cell-counting kit-8 assay, A549. The class given is cell-based. Particulars: CCK-8. As for the experimental part:
(§1) Cell Assay of EGFR Activity
(§2) The anti-proliferative activity was determined using cell-counting kit-8 assay (Dojindo, Japan). H358 and A549 cells lines were seeded at a density of 8000 cells/well and 3000 cells/well respectively in 96-well microtiter plates and were incubated at 37° C. overnight in a humidified incubator containing 5% CO2. Cells were dosed with compounds at final concentrations ranging from 0.025 to 80 μM in each well of the plate. Three groups were set up, including compound group to be tested, blank control group, positive control group (gefitinib).
(§3) The 96-well plate was incubated in cell incubator for 72 hours. The culture fluid was then removed and 100 μl/well of PBS buffer was added. 10 μl/well of CCK-8 solution was added and the assay plate was incubated in the cell incubator for 1 hour. Cell survival was determined by measuring the absorbance at 470 nm using a microplate reader. A calibration curve was prepared using the average data of the 4 wells for each concentration that contain the number of viable cells to determine the IC50 of the target compounds.

A further series has as its system H358 cells. The series can be described thus: Anti-proliferative activity, cell-counting kit-8 assay, H358. The class given is cell-based. The following applies: CCK-8. The protocol: as §1, §2, §3
In the next series the target is EGFR (WT) (Homo sapiens (Human), UniProt P00533). Description: Kinase-Glo luminescent kinase assay, EGFR tyrosine kinase inhibitory activity (WT). The class given is biochemical. Particulars: EGFR wild type. The protocol:
(§4) Determination of the Compound Inhibitory Activity Against EGFR Kinase
(§5) The inhibitory activity of compounds in formula (I) and (II) were determined using Kinase-Glo luminescent kinase assay. The receptor tyrosine kinase EGFR was tested and Gefitinib, a known EGFR inhibitor, was chosen as the positive control compound. The method is detailed below:
(§6) The sample compounds were dissolved in DMSO and diluted it to 500 μM concentration with DMSO and transferred to a dose plate. The compounds were serially diluted with DMSO in 5 fold concentration. Then each concentration was diluted 10-fold with the reaction buffer to get a 10× final concentration. Transfer the compounds with concentrations ranging from 0.003 μM to 50 μM to EGFR assay plate to determine their kinase activity with a dose of 1 μL/well.
(§7) The positive control compound Gifitinib was dissolved in DMSO as 10 mM stock solution and diluted it to 100 μM concentration with DMSO. The control compound was serially diluted with DMSO in 5 fold concentration. Then each concentration was diluted 10-fold with the reaction buffer to get a 10× final concentration.
(§8) For the HPE (hundred percent effect: No kinase and no compound, but containing ATP, substrate and 1% DMSO) and ZPE (zero percent effect: No compound but containing kinase, ATP, substrate and 1% DMSO) wells, dilute 2 μL DMSO 10-fold with reaction buffer to obtain 10% DMSO solution. Then transfer it to the assay plat, 1 μL/well. The positive control wells contain kinase, ATP, substrate and positive control compound in different concentrations. The sample compound wells contain kinase, ATP, substrate and the compounds to be tested in different concentrations.
(§9) Preparation of the reagents in need: 4×ATP: dilute ATP 4 times with assay buffer to obtain a working solution; 4× substrate: dilute Poly ([…]: tyrosine) 4 times with assay buffer to obtain a working solution; 2.5×EGFR kinase: dilute EGFR kinase 2.5 times with assay buffer to obtain a working solution.
(§10) Kinase reaction: Add 10× compounds to the assay plate in a 384-well plate layout, 1 μL/well. For the HPE and ZPE wells, equal volume (1 μL/well) of 10% DMSO was added to the 384-well assay plate; Add 2.5×EGFR kinase into the assay plate in 384-well plate layout, 4 μL/well. For HPE and ZPE wells, an equal volume (4 μL/well) of assay buffer was added to the 384-well assay plate; Centrifuge the assay plate with 1000 rpm for 1 min to mix them; Pre-incubate the assay plate for 30 min at 30° C.; Mix equal volume of 4×ATP and 4× substrate to obtain 2×ATP-substrate mixture which serves as a reaction mixture for the determination of EGFR activity; Add 2×ATP-substrate mixture to the assay plate, 5 μL/well; Centrifuge the assay plate at 1000 rpm for 1 min to mix them; Incubate the assay plate for one hour at 30° C.; Add Kinase glo plus was to each well (10 μL/well), and then incubated the assay plate for 20 min at 27° C.; Read luminescence signal with Envision plate reader.

The target of a further series is EGFR (T790M) (Homo sapiens (Human), UniProt P00533, T790M). Description: Kinase-Glo luminescent kinase assay, EGFR tyrosine kinase inhibitory activity (T790M). It counts as biochemical. As for the experimental part: as §4, §5, §6, §7, §8, §9, §10
For orientation: Kinase-Glo reads ATP consumption through a luciferase reaction.

The conditions of series [1]: in vivo; cited from earlier work.

Chain of EGFR (T790M) (P00533 25-1210 T790M): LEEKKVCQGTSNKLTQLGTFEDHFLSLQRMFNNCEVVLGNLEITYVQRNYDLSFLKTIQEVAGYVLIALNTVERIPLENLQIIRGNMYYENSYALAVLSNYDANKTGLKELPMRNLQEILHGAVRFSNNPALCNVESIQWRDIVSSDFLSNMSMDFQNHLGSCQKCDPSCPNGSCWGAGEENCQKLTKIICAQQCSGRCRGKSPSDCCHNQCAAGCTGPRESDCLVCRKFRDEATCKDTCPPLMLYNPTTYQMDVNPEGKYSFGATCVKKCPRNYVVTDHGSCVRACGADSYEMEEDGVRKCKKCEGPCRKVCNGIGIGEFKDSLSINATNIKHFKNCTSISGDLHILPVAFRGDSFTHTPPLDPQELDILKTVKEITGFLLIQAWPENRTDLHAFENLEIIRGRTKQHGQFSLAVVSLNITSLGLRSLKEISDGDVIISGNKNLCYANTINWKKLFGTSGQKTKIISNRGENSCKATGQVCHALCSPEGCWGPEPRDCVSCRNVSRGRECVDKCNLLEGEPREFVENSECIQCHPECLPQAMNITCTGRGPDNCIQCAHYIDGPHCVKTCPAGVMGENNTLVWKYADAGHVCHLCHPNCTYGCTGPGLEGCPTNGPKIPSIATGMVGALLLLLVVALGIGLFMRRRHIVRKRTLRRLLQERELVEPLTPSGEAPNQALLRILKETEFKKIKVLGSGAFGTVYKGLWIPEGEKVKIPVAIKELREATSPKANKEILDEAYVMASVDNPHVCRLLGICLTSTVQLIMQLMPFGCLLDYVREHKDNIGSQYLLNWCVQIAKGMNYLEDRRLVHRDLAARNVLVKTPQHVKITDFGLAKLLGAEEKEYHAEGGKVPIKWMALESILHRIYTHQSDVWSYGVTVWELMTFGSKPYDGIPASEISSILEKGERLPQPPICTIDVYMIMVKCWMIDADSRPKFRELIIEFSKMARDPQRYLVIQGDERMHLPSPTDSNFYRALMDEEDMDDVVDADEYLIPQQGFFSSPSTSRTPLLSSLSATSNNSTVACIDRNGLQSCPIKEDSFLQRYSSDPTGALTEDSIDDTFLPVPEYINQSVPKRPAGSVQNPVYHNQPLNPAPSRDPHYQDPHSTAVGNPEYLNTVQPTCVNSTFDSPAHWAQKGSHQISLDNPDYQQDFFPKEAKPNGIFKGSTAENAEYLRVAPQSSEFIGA
Chain of EGFR (WT) (P00533 25-1210): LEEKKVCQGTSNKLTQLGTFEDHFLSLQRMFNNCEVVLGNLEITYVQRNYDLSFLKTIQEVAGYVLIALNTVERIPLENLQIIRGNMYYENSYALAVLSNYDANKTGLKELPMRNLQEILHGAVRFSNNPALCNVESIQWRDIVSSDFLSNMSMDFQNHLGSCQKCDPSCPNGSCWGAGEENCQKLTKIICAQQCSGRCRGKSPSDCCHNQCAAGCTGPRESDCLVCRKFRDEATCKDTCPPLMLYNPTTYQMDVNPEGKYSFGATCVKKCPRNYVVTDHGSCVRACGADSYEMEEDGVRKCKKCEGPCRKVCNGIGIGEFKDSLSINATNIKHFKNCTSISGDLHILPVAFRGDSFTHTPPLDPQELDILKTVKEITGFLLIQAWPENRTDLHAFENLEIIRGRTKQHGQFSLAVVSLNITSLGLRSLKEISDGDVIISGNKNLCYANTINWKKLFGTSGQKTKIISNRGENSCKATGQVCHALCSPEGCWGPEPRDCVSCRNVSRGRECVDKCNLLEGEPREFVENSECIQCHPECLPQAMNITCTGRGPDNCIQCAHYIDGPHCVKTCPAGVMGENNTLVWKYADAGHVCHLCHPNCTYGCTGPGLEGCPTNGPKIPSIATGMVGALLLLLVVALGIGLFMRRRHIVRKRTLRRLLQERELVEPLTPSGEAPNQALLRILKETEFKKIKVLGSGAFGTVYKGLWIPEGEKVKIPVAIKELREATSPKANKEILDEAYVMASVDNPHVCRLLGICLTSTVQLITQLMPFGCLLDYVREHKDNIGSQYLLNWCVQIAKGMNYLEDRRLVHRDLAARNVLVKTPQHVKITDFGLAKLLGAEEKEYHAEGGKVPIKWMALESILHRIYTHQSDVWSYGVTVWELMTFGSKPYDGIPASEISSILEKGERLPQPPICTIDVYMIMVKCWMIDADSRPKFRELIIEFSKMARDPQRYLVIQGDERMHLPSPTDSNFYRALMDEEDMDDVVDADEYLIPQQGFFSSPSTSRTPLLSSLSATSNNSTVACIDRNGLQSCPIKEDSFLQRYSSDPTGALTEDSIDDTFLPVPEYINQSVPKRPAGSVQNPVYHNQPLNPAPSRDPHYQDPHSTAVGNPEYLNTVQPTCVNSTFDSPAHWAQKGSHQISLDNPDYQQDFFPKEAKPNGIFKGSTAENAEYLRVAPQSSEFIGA

As a reminder, the IC50 is the midpoint of a concentration-inhibition curve. For the compound `CC(C)Oc1cc2ncnc(Nc3ccc(F)c(Cl)c3)c2c2c1OCCO2` [Compound I-7, N-(3-Chloro-4-fluorophenyl)-5-isopropoxy-2,3-dihydro-[1,4]dioxino[2,3-f]quinazolin-10-amine], the IC50 with A549 cells (Homo sapiens, A549, 72 h) was 11.6 µM; with H358 cells (Homo sapiens, NCI-H358, 72 h), 6.92 µM; at EGFR (WT), below 0.05 µM; on EGFR (T790M), below 0.05 µM.
As for `C#Cc1cccc(Nc2ncnc3cc(OC(C)C)c4c(c23)OCCO4)c1` [Compound I-8, N-(3-Ethynylphenyl)-5-isopropoxy-2,3-dihydro-[1,4]dioxino[2,3-f]quinazolin-10-amine], the IC50 with A549 cells (Homo sapiens, A549, 72 h) is 6.08 µM; in the series with H358 cells (Homo sapiens, NCI-H358, 72 h), 5.54 µM; against EGFR (WT), below 0.05 µM; against EGFR (T790M) it was below 0.05 µM.
As for `CCOC(C)Oc1cc2ncnc(Nc3ccc(F)c([N+](=O)[O-])c3)c2c2c1OCCO2` (centres unmarked) [Compound I-16, 5-(1-Ethoxyethoxy)-N-(4-fluoro-3-nitrophenyl)-2,3-dihydro-[1,4]dioxino[2,3-f]quinazolin-10-amine], the IC50 with A549 cells (Homo sapiens, A549, 72 h) is 17.5 µM; with H358 cells (Homo sapiens, NCI-H358, 72 h), 17.5 µM; against EGFR (WT), below 0.3 µM; on EGFR (T790M), below 0.3 µM.
Turning to `C#Cc1cccc(Nc2ncnc3cc(OC4CCOCC4)c4c(c23)OCCO4)c1` [Compound I-21, N-(3-Ethynylphenyl)-5-(tetrahydro-2H-pyran-4-yloxy)-2,3-dihydro-[1,4]dioxino[2,3-f]quinazolin-10-amine], the IC50 with A549 cells (Homo sapiens, A549, 72 h) is 6.42 µM; in the series with H358 cells (Homo sapiens, NCI-H358, 72 h), 1.47 µM; on EGFR (WT), below 0.1 µM; at EGFR (T790M), below 1 µM.
As for `Fc1cc(Nc2ncnc3cc(OC4CCOCC4)c4c(c23)OCCO4)ccc1Cl` [Compound I-22, N-(4-Chloro-3-fluorophenyl)-5-(tetrahydro-2H-pyran-4-yloxy)-2,3-dihydro-[1,4]dioxino[2,3-f]-quinazolin-10-amine], the half-maximal inhibitory concentration (IC50) in the series on A549 cells (Homo sapiens, A549, 72 h) was above 20 µM; in the series with H358 cells (Homo sapiens, NCI-H358, 72 h), above 20 µM; at EGFR (WT), below 0.1 µM; against EGFR (T790M) it was below 1 µM.
As to `Fc1cc(Nc2ncnc3cc(OC4CCOC4)c4c(c23)OCCO4)ccc1Cl` (centres unmarked) [Compound I-23, N-(4-Chloro-3-fluorophenyl)-5-(tetrahydrofuran-3-yloxy)-2,3-dihydro-[1,4]dioxino[2,3-f]quinazolin-10-amine], the half-maximal inhibitory concentration (IC50) in the series with A549 cells (Homo sapiens, A549, 72 h) was 15.1 µM; in the series on H358 cells (Homo sapiens, NCI-H358, 72 h), 13 µM; against EGFR (WT) it was below 0.05 µM; on EGFR (T790M), below 0.1 µM.
The like results for `C#Cc1cccc(Nc2ncnc3cc(OC4CCOC4)c4c(c23)OCCO4)c1` (centres unmarked) [Compound I-24, N-(3-Ethynylphenyl)-5-(tetrahydrofuran-3-yloxy)-23-dihydro-[1,4]dioxino[2,3-f]quinazolin-10-amine] were, in that order, 9.69 µM, 8.58 µM, below 0.05 µM and below 0.3 µM.
As for `COCC(C)Oc1cc2ncnc(Nc3ccc(F)c(Cl)c3)c2c2c1OCCO2` (centres unmarked) [Compound I-25, N-(3-Chloro-4-fluorophenyl)-5-(1-methoxypropan-2-yloxy)-2,3-dihydro-[1,4]dioxino[2,3-H]quinazolin-10-amine], the IC50 is 10.4 µM in the series with A549 cells (Homo sapiens, A549, 72 h) and 10.6 µM in the series with H358 cells (Homo sapiens, NCI-H358, 72 h).
For the compound `COCCOc1cc2ncnc(Nc3ccc(F)c(Cl)c3)c2c2c1OCCO2` [Compound I-30, N-(3-Chloro-4-fluorophenyl)-5-(2-methoxyethoxy)-2,3-dihydro-[1,4]dioxino[2,3-f]quinazolin-10-amine], the 50% inhibitory concentration (IC50) in the series with A549 cells (Homo sapiens, A549, 72 h) was 13.9 µM; with H358 cells (Homo sapiens, NCI-H358, 72 h) it was 5.93 µM; against EGFR (WT) it was below 0.05 µM; at EGFR (T790M) it was below 0.05 µM.
For the compound `COCCOc1cc2ncnc(Nc3cccc(OC)c3)c2c2c1OCCO2` [Compound I-33, 5-(2-Methoxyethoxy)-N-(3-methoxyphenyl)-2,3-dihydro-[1,4]dioxino[2,3-f]quinazolin-10-amine], the IC50 was 12.1 µM with A549 cells (Homo sapiens, A549, 72 h); 9.64 µM with H358 cells (Homo sapiens, NCI-H358, 72 h); below 0.2 µM against EGFR (WT); below 1 µM against EGFR (T790M).
As for `C#Cc1cccc(Nc2ncnc3cc(OCC)c4c(c23)OCCO4)c1` [Compound I-35, 5-Ethoxy-N-(3-ethynylphenyl)-2,3-dihydro-[1,4]dioxino[2,3-f]quinazolin-10-amine], the IC50 in the series on A549 cells (Homo sapiens, A549, 72 h) was 10.5 µM; in the series on H358 cells (Homo sapiens, NCI-H358, 72 h) it was 8.89 µM; against EGFR (WT), below 0.05 µM; on EGFR (T790M), below 0.05 µM.
Regarding `CCOc1cc2ncnc(Nc3cccc(OC)c3)c2c2c1OCCO2` [Compound I-36, 5-Ethoxy-N-(3-methoxyphenyl)-2,3-dihydro-[1,4]dioxino[2,3-f]quinazolin-10-amine], the IC50 in the series on A549 cells (Homo sapiens, A549, 72 h) was 12 µM; in the series with H358 cells (Homo sapiens, NCI-H358, 72 h), 7.41 µM; at EGFR (WT), below 0.05 µM; against EGFR (T790M), below 0.05 µM.
As for `CCOc1cc2ncnc(Nc3ccc(C)c(Cl)c3)c2c2c1OCCO2` [Compound I-37, N-(3-Chloro-4-methylphenyl)-5-ethoxy-2,3-dihydro-[1,4]dioxino[2,3-f]quinazolin-10-amine], the IC50 with A549 cells (Homo sapiens, A549, 72 h) was 12.1 µM; in the series with H358 cells (Homo sapiens, NCI-H358, 72 h), 11.6 µM; against EGFR (WT) it was below 0.05 µM; against EGFR (T790M), below 0.05 µM.
With `CCOc1cc2ncnc(Nc3ccc(C)cc3)c2c2c1OCCO2` [Compound I-39, 5-Ethoxy-N-p-tolyl-2,3-dihydro-[1,4]dioxino[2,3-f]quinazolin-10-amine], the IC50 is 10.2 µM with A549 cells (Homo sapiens, A549, 72 h); 6.1 µM in the series on H358 cells (Homo sapiens, NCI-H358, 72 h); below 0.05 µM at EGFR (WT); below 0.1 µM against EGFR (T790M).
With `C#Cc1cccc(Nc2ncnc3cc(OCC4CCCO4)c4c(c23)OCCO4)c1` (centres unmarked) [Compound I-41, N-(3-Ethynylphenyl)-5-((tetrahydrofuran-2-yl)methoxy)-2,3-dihydro-[1,4]dioxino[2,3-f]quinazolin-10-amine], the half-inhibitory concentration (IC50) was 11.5 µM with A549 cells (Homo sapiens, A549, 72 h); 9.51 µM with H358 cells (Homo sapiens, NCI-H358, 72 h); below 0.05 µM against EGFR (WT); below 0.1 µM at EGFR (T790M).
Take `O=C1COc2cc3ncnc(Nc4ccc(F)c(Cl)c4)c3cc2N1CCCN1CCOCC1` [II-1, 4-((3-Chloro-4-fluorophenyl)amino)-6-(3-morpholinopropyl)-6H-[1,4]oxazino[3,2-g]quinazolin-7(8H)-one]: the half-maximal inhibitory concentration (IC50) in the series with A549 cells (72 hours) was 7.51 µM; in the series on H358 cells (72 hours), 13.5 µM; against EGFR (WT) it was below 0.05 µM; on EGFR (T790M), below 0.3 µM.
For the compound `O=C1COc2cc3ncnc(Nc4ccc(F)c(Cl)c4)c3cc2N1CCCN1CCOCC1` [II-2, 4-((3-Chloro-4-fluorophenyl)amino)-6-(3-morpholinopropyl)-6H-[1,4]oxazino[3,2-g]quinazolin-7(8H)-one], the half-inhibitory concentration (IC50) in the series with A549 cells (Homo sapiens, A549, 72 h) is 5.58 µM; with H358 cells (Homo sapiens, NCI-H358, 72 h) it was 13.5 µM; at EGFR (WT), below 0.2 µM; against EGFR (T790M), below 1 µM.
Turning to `COc1cccc(Nc2ncnc3cc4c(cc23)N(CCCN2CCOCC2)C(=O)CO4)c1` [II-4, 4-((3-Methoxyphenyl)amino)-6-(3-morpholinopropyl)-6H-[1,4]oxazino[3,2-g]quinazolin-7(8H)-one], the results for the IC50 on EGFR (WT) and at EGFR (T790M) were below 0.2 µM and below 1 µM, respectively.
Turning to `COc1ccc(Nc2ncnc3cc4c(cc23)N(CCCN2CCOCC2)C(=O)CO4)cc1OC` [II-5, 4-((3,4-Dimethoxyphenyl)amino)-6-(3-morpholinopropyl)-6H-[1,4]oxazino[3,2-g]quinazolin-7(8H)-one], the IC50 against EGFR (WT) is below 0.2 µM; against EGFR (T790M), below 1 µM.
With `C#Cc1cccc(Nc2ncnc3cc(OCCOC)c(OCCOC)cc23)c1` [erlotinib, Erlotinib], the oral bioavailability in series [1] is 80%.
